Measured values taken from patent US10246453B2, “Benzenesulfonamide compounds and their use as therapeutic agents” (Xenon Pharmaceuticals Inc., priority 2016, dated 2019).
Counter-ions that a name gives are not always drawn.

How the values were obtained:
NaV1.1 = NaV1.1 (Homo sapiens (Human), UniProt P35498); assay: Sodium Influx Assay (Flux), NaV1.1; type: cell-based; conditions: Trex HEK293 cells, ANG2 dye; arithmetic mean
NaV1.6 [1] = molecular target: T1, NaV1.6 (Homo sapiens (Human), UniProt Q9UQD0); assay: Electrophysiological Assay (EP), patch voltage clamp, NaV1.6; type: cell-based; conditions: HEK-293 cells, whole-cell patch clamp, inactivated state; arithmetic mean
Description: Patch voltage clamp electrophysiology allows for the direct measurement and quantification of block of voltage-gated sodium channels (Nay's), and allows the determination of the time-and voltage-dependence of block which has been interpreted as differential binding to the resting, open, and inactivated states of the sodium channel (Hille, B., Journal of General Physiology (1977), 69: 497-515).
NaV1.1, NaV1.5 and NaV1.6 cDNAs (NM_001165964 (SCN1A), NM_000335 (SCN5A) and NM_014191 (SCN8A), respectively) were stably expressed in HEK-293 cells.
Sodium currents were measured using the patch clamp technique in the whole-cell configuration using either a PatchXpress automated voltage clamp or manually using an Axopatch 200B (Axon Instruments) or Model 2400 (A-M systems) amplifier.
The manual voltage clamp protocol was as follows: Borosilicate glass micropipettes were fire-polished to a tip diameter yielding a resistance of 2-4 Mohms in the working solutions. […] In some studies, the external sodium was reduced by equimolar replacement with choline. Osmolarity in the CsF internal and NaCl external solutions was adjusted to 300 mOsm/kg and 310 mOsm/kg with glucose, respectively. All recordings were performed at ambient temperature in a bath chamber with a volume of 150 μL. Control sodium currents were measured in 0.5% DMSO. Controls and representative compounds of the invention were applied to the recording chamber through a 4-pinch or 8-pinch valve bath perfusion system manufactured by ALA Scientific Instruments.
Currents were recorded at 40 kHz sampling frequency, filtered at […], and stored using a Digidata-1322A analogue/digital interface with the pClamp software (Axon Instruments). Series resistance compensation was applied (60-80%). […] All statistics in this study are given as mean±SD.
The membrane potential was maintained at a voltage where inactivation of the channel is complete. The voltage is then stepped back to a very negative (Vhold=−150 mV) voltage for 20 ms and then a test pulse is applied to quantify the compound block. The 20 ms brief repolarization was long enough for compound-free channels to completely recover from fast inactivation, but the compound-bound channels recovered more slowly such that negligible recovery could occur during this interval. The percent decrease in sodium current following wash-on of compound was taken as the percent block of sodium channels.

NaV1.6 [2] = molecular target: T1, NaV1.6; assay: Sodium Influx Assay (Flux), NaV1.6; conditions: read-out: Flux NaV1.6 IC50; Trex HEK293 cells, ANG2 dye; arithmetic mean
NaV1.5 = NaV1.5 (Homo sapiens (Human), UniProt Q14524); assay: Sodium Influx Assay (Flux), NaV1.5; conditions: read-out: Flux NaV1.5 IC50; Trex HEK293 cells, ANG2 dye; arithmetic mean
Chain of NaV1.5 (Q14524 other isoform, or with tags, fused parts or gaps): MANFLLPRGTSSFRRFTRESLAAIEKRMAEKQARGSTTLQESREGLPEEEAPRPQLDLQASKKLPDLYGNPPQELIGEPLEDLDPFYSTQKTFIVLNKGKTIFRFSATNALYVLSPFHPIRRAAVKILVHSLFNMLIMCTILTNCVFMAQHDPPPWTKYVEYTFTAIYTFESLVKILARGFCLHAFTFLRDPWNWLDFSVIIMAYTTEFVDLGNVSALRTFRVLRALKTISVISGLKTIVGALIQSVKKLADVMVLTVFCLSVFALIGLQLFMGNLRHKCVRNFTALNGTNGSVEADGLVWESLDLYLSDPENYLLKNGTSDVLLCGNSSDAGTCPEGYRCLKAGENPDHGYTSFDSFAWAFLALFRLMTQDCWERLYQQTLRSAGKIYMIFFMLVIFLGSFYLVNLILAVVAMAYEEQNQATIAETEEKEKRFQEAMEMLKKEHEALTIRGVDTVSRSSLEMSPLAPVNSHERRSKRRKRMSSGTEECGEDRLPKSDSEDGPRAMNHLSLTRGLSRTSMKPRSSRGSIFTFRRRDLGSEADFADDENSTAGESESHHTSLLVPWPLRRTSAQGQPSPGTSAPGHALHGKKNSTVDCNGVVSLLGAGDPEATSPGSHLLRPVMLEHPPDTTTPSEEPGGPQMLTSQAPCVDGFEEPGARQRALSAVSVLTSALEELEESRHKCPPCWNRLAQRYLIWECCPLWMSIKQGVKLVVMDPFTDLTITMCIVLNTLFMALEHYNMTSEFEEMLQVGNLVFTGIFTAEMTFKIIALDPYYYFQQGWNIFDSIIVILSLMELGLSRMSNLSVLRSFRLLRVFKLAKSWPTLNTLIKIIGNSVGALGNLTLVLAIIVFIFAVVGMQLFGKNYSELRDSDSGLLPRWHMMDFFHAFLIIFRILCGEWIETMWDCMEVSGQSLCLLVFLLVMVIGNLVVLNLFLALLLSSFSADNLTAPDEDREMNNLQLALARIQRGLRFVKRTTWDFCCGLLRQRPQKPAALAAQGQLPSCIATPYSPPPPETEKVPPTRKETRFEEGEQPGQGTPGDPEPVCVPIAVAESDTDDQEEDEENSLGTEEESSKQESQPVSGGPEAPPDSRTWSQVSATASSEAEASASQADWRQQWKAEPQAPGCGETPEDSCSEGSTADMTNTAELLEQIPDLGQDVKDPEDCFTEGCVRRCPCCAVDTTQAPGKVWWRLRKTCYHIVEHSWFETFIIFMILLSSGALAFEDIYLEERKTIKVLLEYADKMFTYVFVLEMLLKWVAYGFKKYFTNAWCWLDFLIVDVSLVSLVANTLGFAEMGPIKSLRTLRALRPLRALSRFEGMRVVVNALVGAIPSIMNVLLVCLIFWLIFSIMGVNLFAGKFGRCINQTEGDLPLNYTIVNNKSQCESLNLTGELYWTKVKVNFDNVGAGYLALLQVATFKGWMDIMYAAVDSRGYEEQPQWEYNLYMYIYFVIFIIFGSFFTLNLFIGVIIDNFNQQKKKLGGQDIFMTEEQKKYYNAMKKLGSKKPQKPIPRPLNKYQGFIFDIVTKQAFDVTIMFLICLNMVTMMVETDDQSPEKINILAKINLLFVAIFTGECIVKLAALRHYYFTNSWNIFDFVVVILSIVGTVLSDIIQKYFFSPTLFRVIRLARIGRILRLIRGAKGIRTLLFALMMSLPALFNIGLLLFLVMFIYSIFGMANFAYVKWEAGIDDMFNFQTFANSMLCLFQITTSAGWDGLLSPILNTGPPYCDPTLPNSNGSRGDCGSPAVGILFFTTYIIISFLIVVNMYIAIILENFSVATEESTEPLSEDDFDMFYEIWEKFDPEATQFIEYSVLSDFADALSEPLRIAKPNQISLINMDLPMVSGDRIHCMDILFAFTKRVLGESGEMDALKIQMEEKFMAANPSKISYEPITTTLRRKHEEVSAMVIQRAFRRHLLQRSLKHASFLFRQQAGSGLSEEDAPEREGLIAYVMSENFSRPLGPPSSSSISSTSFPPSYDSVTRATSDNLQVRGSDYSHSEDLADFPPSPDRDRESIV

T1 sequence (Q9UQD0 whole entry): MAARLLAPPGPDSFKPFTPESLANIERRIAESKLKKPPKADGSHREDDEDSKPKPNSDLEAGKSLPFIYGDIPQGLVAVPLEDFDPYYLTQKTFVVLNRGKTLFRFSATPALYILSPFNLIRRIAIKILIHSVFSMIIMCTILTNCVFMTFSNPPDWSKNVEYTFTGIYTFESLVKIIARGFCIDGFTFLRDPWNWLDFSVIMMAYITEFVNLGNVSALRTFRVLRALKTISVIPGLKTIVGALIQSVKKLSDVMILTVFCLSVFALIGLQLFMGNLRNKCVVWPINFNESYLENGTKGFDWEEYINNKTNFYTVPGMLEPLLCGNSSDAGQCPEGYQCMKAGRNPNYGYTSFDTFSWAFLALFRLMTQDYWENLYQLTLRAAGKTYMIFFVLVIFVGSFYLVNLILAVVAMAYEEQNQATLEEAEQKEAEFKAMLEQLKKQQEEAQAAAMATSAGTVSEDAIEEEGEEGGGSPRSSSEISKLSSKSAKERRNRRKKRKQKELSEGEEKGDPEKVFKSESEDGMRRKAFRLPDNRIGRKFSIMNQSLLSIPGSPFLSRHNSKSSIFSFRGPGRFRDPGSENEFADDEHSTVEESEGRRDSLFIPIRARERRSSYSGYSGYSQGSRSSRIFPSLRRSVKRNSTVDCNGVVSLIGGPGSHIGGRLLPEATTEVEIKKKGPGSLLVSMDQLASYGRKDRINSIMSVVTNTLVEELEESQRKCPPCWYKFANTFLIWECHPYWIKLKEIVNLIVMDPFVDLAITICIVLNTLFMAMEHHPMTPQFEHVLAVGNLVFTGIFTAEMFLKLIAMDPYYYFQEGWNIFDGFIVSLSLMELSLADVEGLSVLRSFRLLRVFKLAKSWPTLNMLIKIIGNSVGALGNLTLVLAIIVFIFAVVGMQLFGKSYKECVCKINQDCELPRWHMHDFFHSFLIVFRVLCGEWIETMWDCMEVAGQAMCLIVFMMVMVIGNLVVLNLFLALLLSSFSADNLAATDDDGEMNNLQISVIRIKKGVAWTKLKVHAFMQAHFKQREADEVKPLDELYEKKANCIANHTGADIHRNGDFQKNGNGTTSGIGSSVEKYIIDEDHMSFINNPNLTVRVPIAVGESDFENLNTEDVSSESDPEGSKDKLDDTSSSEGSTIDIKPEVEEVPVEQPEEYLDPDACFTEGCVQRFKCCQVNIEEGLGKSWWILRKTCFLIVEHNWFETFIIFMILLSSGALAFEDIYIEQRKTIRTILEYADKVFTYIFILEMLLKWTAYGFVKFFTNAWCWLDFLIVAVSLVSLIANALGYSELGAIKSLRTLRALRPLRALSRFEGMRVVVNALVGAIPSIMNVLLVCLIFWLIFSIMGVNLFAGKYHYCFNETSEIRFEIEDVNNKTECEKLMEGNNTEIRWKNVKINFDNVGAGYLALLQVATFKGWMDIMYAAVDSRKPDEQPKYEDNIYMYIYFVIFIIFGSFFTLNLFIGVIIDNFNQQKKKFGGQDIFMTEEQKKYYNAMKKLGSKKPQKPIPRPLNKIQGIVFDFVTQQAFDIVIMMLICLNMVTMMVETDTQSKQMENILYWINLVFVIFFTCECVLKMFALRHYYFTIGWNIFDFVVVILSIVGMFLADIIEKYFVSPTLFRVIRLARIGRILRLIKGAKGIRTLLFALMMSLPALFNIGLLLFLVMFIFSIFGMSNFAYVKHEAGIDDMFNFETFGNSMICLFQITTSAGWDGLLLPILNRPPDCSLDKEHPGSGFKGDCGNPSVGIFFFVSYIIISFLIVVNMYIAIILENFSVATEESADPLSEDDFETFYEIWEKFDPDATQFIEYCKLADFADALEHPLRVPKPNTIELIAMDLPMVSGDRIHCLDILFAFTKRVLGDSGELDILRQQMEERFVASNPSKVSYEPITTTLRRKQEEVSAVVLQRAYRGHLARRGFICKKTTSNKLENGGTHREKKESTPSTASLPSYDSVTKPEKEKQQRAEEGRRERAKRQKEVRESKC

IC50 (NaV1.1) [nM] | IC50 (NaV1.6 [2]) [nM] | SMILES | IC50 (NaV1.6 [1]) [nM] | IC50 (NaV1.5) [nM]
22500 | 1360 | CC1(C)CN(Cc2ccccc2)CCC1Oc1ccc(S(=O)(=O)Nc2ncns2)cc1Cl (centres unmarked) [Example 2, 4-((1-benzyl-3,3-dimethylpiperidin-4-yl)oxy)-3-chloro-N-(1,2,4-thiadiazol-5-yl)benzenesulfonamide 2,2,2-trifluoroacetate] | 381 | 6320
27700 | 13 | CN(c1ccc(S(=O)(=O)Nc2ncns2)cc1Cl)[C@H]1CCN(Cc2cccc(C(F)F)c2)C1 [Example 31, (S)-3-chloro-4-((1-(3-(difluoromethyl)benzyl)pyrrolidin-3-yl)(methyl)amino)-N-(1,2,4-thiadiazol-5-yl)benzenesulfonamide] | 29 | > 30000
> 30000 | 1450 | O=S(=O)(Nc1ncns1)c1ccc(O[C@H]2CCN(Cc3ccccc3)C2)c(Cl)c1 [Example 97, (S)-4-(1-benzylpyrrolidin-3-yloxy)-3-chloro-N-(1,2,4-thiadiazol-5-yl)benzenesulfonamide 2,2,2-trifluoroacetate] | 2940 | > 30000
> 30000 | 182 | Cc1cccc(CN2CC[C@H](N(C)c3cc(F)c(S(=O)(=O)Nc4cscn4)c(F)c3Cl)C2)n1 [Example 267, (S)-3-chloro-2,6-difluoro-4-(methyl(1-((6-methylpyridin-2-yl)methyl)pyrrolidin-3-yl)amino)-N-(thiazol-4-yl)benzenesulfonamide] | 66 | > 30000
24900 | 153 | Cc1cc(S(=O)(=O)Nc2ccsn2)c(F)cc1N(C)[C@H]1CCN(Cc2ccccc2)C1 [Example 277, (S)-4-((1-benzylpyrrolidin-3-yl)(methyl)amino)-2-fluoro-N-(isothiazol-3-yl)-5-methylbenzenesulfonamide 2,2,2-trifluoroacetate] | 27 | > 30000
12300 | 209 | Cc1c(N(C)[C@H]2CCN(Cc3cccc(C(F)F)c3)C2)ccc(S(=O)(=O)Nc2cscn2)c1F [Example 323, (S)-4-((1-(3-(difluoromethyl)benzyl)-pyrrolidin-3-yl)(methyl)amino)-2-fluoro-3-methyl-N-(thiazol-4-yl)benzenesulfonamide] |  | 13600
> 30000 | 403 | Cc1ccc(F)c(CN2CC[C@H](N(C)c3ccc(S(=O)(=O)Nc4cscn4)c(F)c3C)C2)n1 [Example 324, (S)-2-fluoro-4-((1-((3-fluoro-6-methylpyridin-2-yl)methyl)pyrrolidin-3-yl)(methyl)amino)-3-methyl-N-(thiazol-4-yl)benzenesulfonamide 2,2,2-trifluoroacetate] |  | > 30000
23200 | 260 | CN(c1ccc(S(=O)(=O)Nc2ncns2)cc1Cl)[C@H]1CCN(Cc2cc(F)ccc2F)C1 [Example 325, (S)-3-chloro-4-((1-(2,5-difluorobenzyl)pyrrolidin-3-yl)(methyl)amino)-N-(1,2,4-thiadiazol-5-yl)benzenesulfonamide] |  | 27000
> 30000 | 303 | CN(c1ccc(S(=O)(=O)Nc2ncns2)cc1Cl)[C@H]1CCN(Cc2c(F)cccc2F)C1 [Example 326, (S)-3-chloro-4-((1-(2,6-difluorobenzyl)pyrrolidin-3-yl)(methyl)amino)-N-(1,2,4-thiadiazol-5-yl)benzenesulfonamide] |  | 24500
7800 | 298 | Cc1cc(S(=O)(=O)Nc2cscn2)c(F)cc1N(C)[C@H]1CCN(Cc2cccc(F)c2F)C1 [compound 156, (S)-4-((1-(2,3-difluorobenzyl)pyrrolidin-3-yl)(methyl)amino)-2-fluoro-5-methyl-N-(thiazol-4-yl)benzenesulfonamide] |  | 10300

Further lines, the molecule ahead of its results:

SMILES | IC50 (NaV1.1) [nM] | IC50 (NaV1.6 [2]) [nM] | IC50 (NaV1.6 [1]) [nM] | IC50 (NaV1.5) [nM]
O=S(=O)(Nc1ncns1)c1ccc(NC2CCN(Cc3ccccc3)C2)c(Cl)c1 (centres unmarked) [Example 26, 4-((1-benzylpyrrolidin-3-yl)amino)-3-chloro-N-(1,2,4-thiadiazol-5-yl)benzenesulfonamide trifluoroacetate] | 15000 | 235 | 164 | > 30000
O=S(=O)(Nc1ncns1)c1ccc(NC2CCN(Cc3ccccc3)CC2)c(Cl)c1 [Example 46, 4-((1-benzylpiperidin-4-yl)amino)-3-chloro-N-(1,2,4-thiadiazol-5-yl)benzenesulfonamide 2,2,2-trifluoroacetate] | 4130 | 731 | 278 | > 30000
O=S(=O)(Nc1nccs1)c1cc(Cl)c(OC2CCN(Cc3ccccc3)CC2)cc1F [Example 47, 4-((1-benzylpiperidin-4-yl)oxy)-5-chloro-2-fluoro-N-(thiazol-2-yl)benzenesulfonamide 2,2,2-trifluoroacetate] | 12300 | 943 | 479 | 15900
C[C@H](c1ccccc1)N1CCC(Oc2ccc(S(=O)(=O)Nc3nccs3)cc2Cl)CC1 [Example 55, (R)-3-chloro-4-((1-(1-phenylethyl)piperidin-4-yl)oxy)-N-(thiazol-2-yl)benzenesulfonamide 2,2,2-trifluoroacetate] |  | 187 | 32 | 
O=S(=O)(Nc1ncns1)c1ccc(N[C@@H]2CCN(Cc3ccccc3)C2)c(Cl)c1 [Example 66, (R)-4-((1-benzylpyrrolidin-3-yl)amino)-3-chloro-N-(1,2,4-thiadiazol-5-yl)benzenesulfonamide 2,2,2-trifluoroacetate] | 5510 | 148 | 144 | > 30000
O=S(=O)(Nc1ncns1)c1ccc(N[C@H]2CCN(Cc3ccccc3)C2)c(Cl)c1 [Example 67, (S)-4-((1-benzylpyrrolidin-3-yl)amino)-3-chloro-N-(1,2,4-thiadiazol-5-yl)benzenesulfonamide 2,2,2-trifluoroacetate] | > 30000 | 310 | 453 | > 30000
O=S(=O)(Nc1cccc(F)n1)c1ccc(OC2CCN(Cc3ccccc3)CC2)c(Cl)c1 [Example 77, 4-((1-benzylpiperidin-4-yl)oxy)-3-chloro-N-(6-fluoropyridin-2-yl)benzenesulfonamide 2,2,2-trifluoroacetate] | 19000 | 7610 | 5570 | 26600
O=S(=O)(Nc1nccs1)c1ccc(OC2CCN(Cc3ccccc3)CC2)c(Cl)c1 [Example 95, 4-(1-benzylpiperidin-4-yloxy)-3-chloro-N-(thiazol-2-yl)benzenesulfonamide 2,2,2-trifluoroacetate] |  | 416 | 177 | 20900
Cc1cc(C)cc(CN2CC[C@H](Oc3ccc(S(=O)(=O)Nc4ncns4)cc3Cl)C2)c1 [Example 99, (S)-3-chloro-4-(1-(3,5-dimethylbenzyl)pyrrolidin-3-yloxy)-N-(1,2,4-thiadiazol-5-yl)benzenesulfonamide 2,2,2-trifluoroacetate] | > 30000 | 1410 | 4440 | > 30000
Cc1cc(S(=O)(=O)Nc2cscn2)c(F)cc1N(C)[C@H]1CCN(Cc2ccccc2)C1 [Example 101, (S)-4-((1-benzylpyrrolidin-3-yl)(methyl)amino)-2-fluoro-5-methyl-N-(thiazol-4-yl)benzenesulfonamide formate] |  | 272 | 54 | 
Cc1c(O[C@@]2(C)CCN(Cc3ccccc3)C2)cc(F)c(S(=O)(=O)Nc2cscn2)c1F [Example 158, (S)-4-((1-benzyl-3-methylpyrrolidin-3-yl)oxy)-2,6-difluoro-3-methyl-N-(thiazol-4-yl)benzenesulfonamide formate] | 24200 | 9 | 8 | > 30000
CN(c1ccc(S(=O)(=O)Nc2cscn2)c(F)c1Cl)[C@H]1CCN(Cc2ccccc2)C1 [Example 328, (S)-4-((1-benzylpyrrolidin-3-yl)(methyl)amino)-3-chloro-2-fluoro-N-(thiazol-4-yl)benzenesulfonamide 2,2,2-trifluoroacetate] | 16300 | 786 |  | 18300
